Patent publication US8288367B2, “Substituted estratriene derivatives as 17BETA HSD inhibitors” (Solvay Pharmaceuticals GmBH, priority 2006, dated 2012)

Experiments:
[1] = molecular target: T1, recombinant human 17β-HSD2 (Homo sapiens, UniProt P37059); experiment: Recombinant 17β-HSD2 assay (HPLC, 3H-estradiol conversion); type: biochemical; details: 50 nM estradiol, 1 mM β-NAD, read-out: Inhibition of rec. 17β-HSD2; for inhibition at 0.1 µM: 100 nM compound; for inhibition at 1 µM: 1 μm compound
T1 construct: made in house; host or cells: Sf9 insect cells (baculovirus, Bac to Bac Expression System)
T1 sequence (P37059 1-387): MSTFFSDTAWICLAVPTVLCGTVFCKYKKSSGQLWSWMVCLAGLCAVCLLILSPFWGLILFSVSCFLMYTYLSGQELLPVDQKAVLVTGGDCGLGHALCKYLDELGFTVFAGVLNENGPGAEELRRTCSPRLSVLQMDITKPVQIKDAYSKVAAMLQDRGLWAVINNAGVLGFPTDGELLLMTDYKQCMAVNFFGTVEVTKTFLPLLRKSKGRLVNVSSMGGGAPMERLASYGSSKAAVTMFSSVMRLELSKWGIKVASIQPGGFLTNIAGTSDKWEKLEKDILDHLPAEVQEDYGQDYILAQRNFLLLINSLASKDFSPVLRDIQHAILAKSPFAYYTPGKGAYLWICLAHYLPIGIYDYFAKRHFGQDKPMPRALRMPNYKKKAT
Method in brief: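 Homogenate of Sf9 cells expressing recombinant human 17β-HSD2 (6 μg/ml protein) incubated with 50 nM estradiol plus 3H-estradiol tracer and 1 mM β-NAD. Estrone and estradiol radioactivity separated by HPLC; % inhibition = 100 − % conversion to estrone.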

17β-HSD3 enzyme = molecular target: T2, 17β-HSD3 enzyme (Homo sapiens, UniProt P37058); experiment: Inhibition of 17β-HSD type 3 enzyme in MCF-7 cells stably expressing 17β-HSD3 (HPLC); type: cell-based; details: MCF7, MCF-7 cells expressing 17β-HSD3, 2 nM androstenedione; for inhibition at 1 µM: 1 μM compound; for inhibition at 10 µM: 10 μM compound
T2 construct: expressed in transfected cells; host or cells: MCF-7 cell lines stably expressing 17β-HSD3
T2 sequence (P37058 1-310): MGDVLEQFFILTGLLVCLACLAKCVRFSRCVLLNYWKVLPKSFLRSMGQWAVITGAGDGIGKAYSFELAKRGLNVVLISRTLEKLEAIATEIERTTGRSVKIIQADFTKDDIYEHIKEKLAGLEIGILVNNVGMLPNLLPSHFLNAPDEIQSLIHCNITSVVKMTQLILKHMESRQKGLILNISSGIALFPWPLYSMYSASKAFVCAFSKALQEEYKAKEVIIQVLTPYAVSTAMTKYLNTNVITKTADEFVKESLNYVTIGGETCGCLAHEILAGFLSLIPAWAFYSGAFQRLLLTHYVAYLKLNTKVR
Protocol: The compounds were screened in respect of 17β-HSD3 enzyme activity in vitro on established MCF-7 cell lines, each stably expressing the 17β-HSD3 enzyme. The interconversion of substrate by 17β-HSD3 and the 17β-HSD3 inhibiting activity of chemical compounds in these cell lines were detected by HPLC system.
Varying amounts of the test compounds were incubated in the growth medium of the 17β-HSD3 expressing cells together tritium labeled androstenedione (2 nM). The medium samples were removed after exact incubation time and the reaction is stopped by trichloroacetic acid (TCA). The samples were analyzed by HPLC-coupled flow scintillation analysis.
Conversion: The 17β-HSD3 inhibiting activity of an individual test compound was calculated by comparing the conversion of a control sample without any test compound (referred to as “Negative Control”) to the (reduced) conversion of the test sample containing the particular compound to be tested (referred to as “Test Sample”).

[2] = molecular target: T3, recombinant human 17β-HSD1 (Homo sapiens, UniProt P14061); experiment: Recombinant 17β-HSD1 assay (HPLC, 3H-estrone conversion); type: biochemical; details: 30 nM estrone, 1 mM NADPH, 30 min RT, read-out: Inhibition of rec. 17β-HSD1; for inhibition at 0.1 µM: 100 nM compound; for inhibition at 1 µM: 0.5 h, 1 μm compound
T3 construct: made in house; host or cells: Sf9 insect cells (baculovirus, Bac to Bac Expression System)
T3 sequence (P14061 1-328): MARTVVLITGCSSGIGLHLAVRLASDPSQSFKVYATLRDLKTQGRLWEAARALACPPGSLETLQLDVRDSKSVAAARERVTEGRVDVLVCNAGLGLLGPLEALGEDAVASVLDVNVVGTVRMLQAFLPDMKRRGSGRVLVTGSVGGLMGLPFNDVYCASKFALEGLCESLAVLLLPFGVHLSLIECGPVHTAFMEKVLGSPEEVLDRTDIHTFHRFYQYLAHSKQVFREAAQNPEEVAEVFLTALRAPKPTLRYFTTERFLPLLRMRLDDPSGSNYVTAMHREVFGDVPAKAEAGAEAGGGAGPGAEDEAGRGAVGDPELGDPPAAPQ
Method in brief: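 Sf9-expressed human 17β-HSD1 homogenate (0.1 μg/ml) in 20 mM KH2PO4 pH 7.4 with 30 nM estrone plus 3H-estrone tracer and 1 mM NADPH, 30 min at RT, inhibitors at 1 μM or 0.1 μM. Stopped with TCA; estrone and estradiol separated by reverse-phase HPLC with flow scintillation; % inhibition = 100 − % conversion.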

| SMILES | inhibition at 0.1 µM [1] [%] | inhibition at 1 µM [1] [%] | inhibition at 1 µM (17β-HSD3 enzyme) [%] | inhibition at 10 µM (17β-HSD3 enzyme) [%] | inhibition at 0.1 µM [2] [%] | inhibition at 1 µM [2] [%] |
| --- | --- | --- | --- | --- | --- | --- |
| CCN(CC)C(=O)CC[C@@H]1CC(F)(F)[C@@]2(C)CC[C@@H]3c4ccc(B(O)O)cc4CC[C@H]3[C@H]12 [Compound 71, [15beta-[3-(diethylamino)-3-oxopropyl]-17,17-difluoroestra-1(10),2,4-trien-3-yl]boronic acid] | 7.9 | 16.3 | 31 | 60 | 78 | 85 |
| COc1ccc(CCN(C)C(=O)CC[C@@H]2CC(F)(F)[C@@]3(C)CC[C@@H]4c5ccc(B(O)O)cc5CC[C@H]4[C@H]23)cc1OC [Compound 72, [15beta-(3-{[2-(3,4-dimethoxyphenyl)ethyl](methyl)amino}-3-oxopropyl)-17,17-difluoroestra-1(10),2,4-trien-3-yl]boronic acid] | -2.4 | 5.3 | 45 | 71 | 39 | 77 |
| C[C@]12CC[C@@H]3c4ccc(Nc5ccc6c(c5)S(=O)(=O)C=C6)cc4CC[C@H]3[C@@H]1[C@@H](CCCC(=O)N1CCOCC1)CC2=O [Compound 91, 3-[(1,1-dioxido-1-benzothien-6-yl)amino]-15alpha-(4-morpholin-4-yl-4-oxobutyl)estra-1(10),2,4-trien-17-one] | 0.7 | 5.7 | 7 | 52 | 36 | 69 |
